Like-named read-outs stand apart in the source and are kept apart here. One block for each molecule: values may come before it.
What was measured:
[1] = system: NCI-H441 lung cancer cell with KRAS G12V mutation; assay: Proliferation inhibition on RAS cell lines measured by CTG, NCI-H441; format: cell-based; settings: NCI-H441 cells, incubated for 6 days
Source text: (§1) NCI-H358 is a human non-small cell lung cancer cell line with KRAS G12C mutation; AGS is a gastric cancer cell line with KRAS G12D mutation; SW620 is a colon cancer cell with KRAS G12V mutation; NCI-H460 is a non-small cell lung cancer cell with KRAS Q61H mutation; MKN1 is a wild-type gastric cancer cell with KRAS-amplified; LS513 is a colon cancer cell with KRAS G12D mutation; LoVo is a colon cancer cell with KRAS G13D mutation; NCI-H441 is a lung cancer cell with KRAS G12V mutation, and Capan-2 is a pancreatic cancer cell with KRAS G12V mutation.
(§2) The proliferation inhibitory effect of the compounds on various mutations was evaluated by determining the proliferation inhibitory activity of the compounds on these cell lines.
(§3) The assay was conducted on either 384-well plates or 96-well plates. The procedures are as follows:
(§4) The cell suspensions were added to 384- or 96-well plates (384-well plate: 50 μL; 96-well plate: 100 μL) except for peripheral wells. The plates were placed in a carbon dioxide incubator overnight. NCI-H358, AGS, NCI-H460, MKN-1, LS513, LoVo, and NCI-H441 were placed in a 5%, 370 carbon dioxide incubator overnight, and SW620 was placed in a 0%, 370 carbon dioxide incubator overnight. The HPD300 micro-dosing instrument was used to add the corresponding concentration of compound to each well (9-10 concentration gradients of compound were obtained by 3-fold dilution). Cell plates were incubated in a carbon dioxide incubator for 5-6 days. NCI-H358, AGS, NCI-H460 and MKN-1 were incubated at 5%, 37° incubator and SW620 was incubated at 0%, 370 incubator. On the day of plate measurement, the 384- or 96-well plates were first equilibrated at room temperature for 10-30 min, then CellTiter Glo reagent (384-well plate: 25 μL; 96-well plate: 100 μL) was added to the 384- or 96-well plate, shaken for 10 min away from light, and incubated for 10 min. The plates were placed into Victor NIVO or ENVIDION reader plates, and XLFit was utilized to plot the pharmacodynamic inhibition curve and calculate the IC50 value. “IC50>10 μM” is denoted by “*”, “10 μM≥IC50≥1 μM” is denoted by “**”, and “1 μM≥IC50>100 nM” is denoted by “***”, “IC50<100 nM” is denoted by “****”

[2] = system: NCI-H358 human non-small cell lung cancer cell line with KRAS G12C mutation; assay: Proliferation inhibition on RAS cell lines measured by CTG, NCI-H358; format: cell-based; settings: Table 1, NCI-H358 cells, incubated for 6 days, CellTiter Glo, read-out: IC50 (H358 ^b)
Source text: as §1, §2, §3, §4

[3] = system: SW620 colon cancer cell with KRAS G12V mutation; assay: Proliferation inhibition on RAS cell lines measured by CTG, SW620; format: cell-based; settings: Table 1, SW620 cells, incubated for 6 days, CellTiter Glo, read-out: IC50 (SW620 ^c)
Source text: as §1, §2, §3, §4

[4] = system: LoVo colon cancer cell with KRAS G13D mutation; assay: Proliferation inhibition on RAS cell lines measured by CTG, LoVo; format: cell-based; settings: LoVo cells, incubated for 6 days, read-out: IC50 (LoVo^g)
Source text: as §1, §2, §3, §4

[5] = system: NCI-H460 non-small cell lung cancer cell with KRAS Q61H mutation; assay: Proliferation inhibition on RAS cell lines measured by CTG, NCI-H460; format: cell-based; settings: Table 1, NCI-H460 cells, incubated for 6 days, CellTiter Glo, read-out: IC50 (NCI-H460 ^d)
Source text: as §1, §2, §3, §4

[6] = system: LS513 colon cancer cell with KRAS G12D mutation; assay: Proliferation inhibition on RAS cell lines measured by CTG, LS513; format: cell-based; settings: LS513 cells, incubated for 6 days, read-out: IC50 (LS513^f)
Source text: as §1, §2, §3, §4

[7] = system: MKN1 wild-type gastric cancer cell with KRAS-amplified; assay: Proliferation inhibition on RAS cell lines measured by CTG, MKN1; format: cell-based; settings: Table 1, MKN1 cells, incubated for 6 days, CellTiter Glo, read-out: IC50 (MKN1 ^e)
Source text: as §1, §2, §3, §4

[8] = system: AGS gastric cancer cell line with KRAS G12D mutation; assay: Proliferation inhibition on RAS cell lines measured by CTG (CellTiter Glo), AGS; format: cell-based; settings: Table 1, AGS cells, incubated for 5 days
Source text: as §1, §2, §3, §4

[9] = Pharmacokinetic study in mice after intravenous administration; format: in vivo; settings: mouse, 5 mg/kg, male C57BL/6J mice, plasma
Experimental: (§5) After intravenous and oral administration in male C57BL/6J mice (6-8 weeks), plasma samples were collected through the orbital venous plexus at 8 time points (5 min, 15 min, 30 min, 1 h, 2 h, 4 h, 7 h, 24 h), and the collected blood samples were transferred to microcentrifuge tubes containing EDTA-K2 anticoagulant, and centrifuged at 4° C., 4,000 g. After 5 min, the supernatant was taken and stored in a refrigerator at −75° C. ±15° C. LC-MS/MS was used to detect the concentrations of the compounds in the plasma at different time points, and the relevant pharmacokinetic parameters […] were calculated using WinNonlin software.

[10] = Pharmacokinetic study in mice after oral administration; format: in vivo; settings: mouse, 30 mg/kg, male C57BL/6J mice, plasma
Experimental: as §5

[11] = system: Capan-2 pancreatic cancer cell with KRAS G12V mutation; assay: Proliferation inhibition on RAS cell lines measured by CTG, Capan-2; format: cell-based; settings: Homo sapiens, 144 h; Table 2; Capan-2 cells, incubated for 6 days, CellTiter Glo; read-out: IC50 (Capan-2^i)
Source text: as §1, §2, §3, §4

[12] = Homo sapiens, NCI-H441, 144 h, Table 1, CellTiter Glo
[13] = Homo sapiens, LoVo, 144 h, Table 1, CellTiter Glo
[14] = Homo sapiens, LS-513, 144 h, Table 1, CellTiter Glo
[15] = Homo sapiens, LS-513, 144 h, Table 2, CellTiter Glo

IC50 ([1]; Table 1, CellTiter Glo, read-out: IC50 (NCI-H441^h)): 0.1 to 1 µM
IC50 [2]: < 0.1 µM
IC50 [3]: < 0.1 µM
IC50 ([4]; Table 1, CellTiter Glo): < 0.1 µM
IC50 [5]: 1 to 10 µM
IC50 ([6]; Table 1, CellTiter Glo): < 0.1 µM
IC50 [7]: < 0.1 µM
IC50 [8]: < 0.1 µM
Structure (SMILES): CCc1c(F)ccc2cc(O)cc(-c3ncc4c(N5CC(C)(O)CCN5)nc(OCC56CCCN5CC(F)C6)nc4c3F)c12 (single isomer, unassigned) [Compound 2-1]

IC50 ([2]; Homo sapiens, 144 h): < 0.1 µM
IC50 ([3]; Homo sapiens, SW-620, 144 h): < 0.1 µM
IC50 ([5]; Homo sapiens, 144 h): 0.1 to 1 µM
IC50 ([7]; Homo sapiens, MKN-1, 144 h): < 0.1 µM
IC50 ([8]; Homo sapiens, 120 h): < 0.1 µM
Structure (SMILES): CCc1c(F)ccc2cc(O)cc(-c3ncc4c(N5CCCCCN5)nc(OC[C@@]56CCCN5C[C@H](F)C6)nc4c3F)c12 [Compound 3]

AUC(0-inf) [9]: 24300 ng·h/mL
AUC(0-t) [9]: 24300 ng·h/mL
C0 [9]: 96100 ng/mL
clearance [9]: 3.43 mL/min/kg
half-life ([9]; 5% DMSO + 10% Solutol HS15 + 85% (20% HP-β-CD in water)): 2.63 h
Vd ([9]; read-out: Vss): 0.205 L/kg
IC50 ([1]; Homo sapiens, NCI-H441, 144 h, Table 1, numeric value): 0.0036 µM
IC50 [1, 12]: < 0.1 µM
IC50 ([2]; Homo sapiens, 144 h): < 0.1 µM
IC50 ([3]; Homo sapiens, SW-620, 144 h): < 0.1 µM
IC50 ([4]; Homo sapiens, LoVo, 144 h, Table 1, numeric value): 0.0078 µM
IC50 [4, 13]: < 0.1 µM
IC50 ([5]; Homo sapiens, 144 h): 0.1 to 1 µM
AUC(0-inf) [10]: 10400 ng·h/mL
AUC(0-t) [10]: 10400 ng·h/mL
Cmax [10]: 2290 ng/mL
Tmax [10]: 4 h
half-life ([10]; 0.1% Tween 80 + 0.5% MC in water): 1.89 h
IC50 ([6]; Homo sapiens, LS-513, 144 h, Table 1, numeric value): 0.0036 µM
IC50 [6, 14]: < 0.1 µM
IC50 ([7]; Homo sapiens, MKN-1, 144 h): < 0.1 µM
IC50 ([8]; Homo sapiens, 120 h): < 0.1 µM
Structure (SMILES): C#Cc1c(F)ccc2cc(O)cc(-c3ncc4c(N5CCCCCN5)nc(OC[C@@]56CCCN5C[C@H](F)C6)nc4c3F)c12 [Compound 4]

IC50 [2]: < 0.1 µM
IC50 [3]: < 0.1 µM
IC50 [5]: 1 to 10 µM
IC50 [7]: 0.1 to 1 µM
IC50 [8]: < 0.1 µM
Structure (SMILES): C#Cc1c(F)ccc2cc(O)cc(-c3ncc4c(N5CCOCCN5)nc(OC[C@@]56CCCN5C[C@H](F)C6)nc4c3F)c12 [Compound 7]

IC50 ([2]; Homo sapiens, 144 h): < 0.1 µM
IC50 ([3]; Homo sapiens, SW-620, 144 h): < 0.1 µM
IC50 ([5]; Homo sapiens, 144 h): 0.1 to 1 µM
IC50 ([7]; Homo sapiens, MKN-1, 144 h): < 0.1 µM
IC50 ([8]; Homo sapiens, 120 h): < 0.1 µM
Structure (SMILES): CCc1c(F)ccc2cc(O)cc(-c3ncc4c(N5CCOCCN5)nc(OC[C@@]56CCCN5C[C@H](F)C6)nc4c3F)c12 [Compound 8]

IC50 [1, 12]: < 0.1 µM
IC50 [4, 13]: < 0.1 µM
IC50 [6, 14]: < 0.1 µM
Structure (SMILES): C#Cc1c(F)ccc2cc(O)cc(-c3ncc4c(N5CCCCCO5)nc(OC[C@@]56CCCN5C[C@H](F)C6)nc4c3F)c12 [Compound 9]

IC50 [1, 12]: 0.1 to 1 µM
IC50 [4, 13]: 0.1 to 1 µM
IC50 [6, 14]: < 0.1 µM
Structure (SMILES): CCc1c(F)ccc2cc(O)cc(-c3ncc4c(N5CCCCCO5)nc(OC[C@@]56CCCN5C[C@H](F)C6)nc4c3F)c12 [Compound 10]

IC50 [1, 12]: 0.1 to 1 µM
IC50 [4, 13]: 0.1 to 1 µM
IC50 [6, 14]: < 0.1 µM
Structure (SMILES): C#Cc1c(F)ccc2cccc(-c3ncc4c(N5CCCCCN5)nc(OC[C@@]56CCCN5C[C@H](F)C6)nc4c3F)c12 [Compound 11]

IC50 [6, 15]: 0.1 to 1 µM
IC50 [11]: 1 to 10 µM
Structure (SMILES): CCc1c(F)ccc2cc(O)cc(-c3ccc4c(N5CCCCCN5)nc(OC[C@@]56CCCN5C[C@H](F)C6)nc4c3)c12 [Compound 27]

IC50 [6, 15]: < 0.1 µM
IC50 [11]: 0.1 to 1 µM
Structure (SMILES): CCc1c(F)ccc2cc(O)cc(-c3ncc4c(N5CCCCCN5)nc(OCC5(CN(C)C)CC5)nc4c3F)c12 [Compound 28]

IC50 [6, 15]: < 0.1 µM
IC50 [11]: < 0.1 µM
Structure (SMILES): C#Cc1c(F)ccc2cc(O)cc(-c3ncc4c(N5CCCCCN5)nc(OCC5(CN6CCOCC6)CC5)nc4c3F)c12 [Compound 29]

IC50 [6, 15]: < 0.1 µM
IC50 [11]: 0.1 to 1 µM
Structure (SMILES): C#Cc1c(F)ccc2cc(O)cc(-c3nc(OC)c4c(N5CCCCCN5)nc(OC[C@@]56CCCN5C[C@H](F)C6)nc4c3F)c12 [Compound 33]

IC50 [6, 15]: < 0.1 µM
IC50 [11]: 0.1 to 1 µM
Structure (SMILES): Oc1cc(-c2ncc3c(N4CCCCCN4)nc(OC[C@@]45CCCN4C[C@H](F)C5)nc3c2F)c2c(Cl)cccc2c1 [Compound 35]

IC50 [6, 15]: < 0.1 µM
IC50 [11]: < 0.1 µM
Structure (SMILES): C#Cc1cccc2cc(O)cc(-c3ncc4c(N5CCCCCN5)nc(OC[C@@]56CCCN5C[C@H](F)C6)nc4c3F)c12 [Compound 36]

From patent US20240425512A1, “NITROGEN-CONTAINING HETEROCYCLIC COMPOUND, PHARMACEUTICAL COMPOSITION THEREOF AND APPLICATION THEREOF” (280 Bio, Inc., priority 2023, published 2024)
